We go through one compound from ChEMBL document CHEMBL4184317, “Discovery of Tetrahydroquinoxalines as Bromodomain and Extra-Terminal Domain (BET) Inhibitors with Selectivity for the Second Bromodomain” (J Med Chem, 2018).

Molecules are shown by their SMILES. Bounds are passed on as bounds.

Series [1] concerns the target Bromodomain testis-specific protein (Homo sapiens, UniProt Q58F21). Nature of the series: Binding affinity to human partial length DNA-tagged BRDT isoform b BD2 expressed in bacterial by BROMOscan method.
Series [2] deals with Transcription initiation factor TFIID subunit 1-like (Homo sapiens, UniProt Q8IZX4). Nature of the series: Binding affinity to human partial length DNA-tagged TAF1L BD2 expressed in bacteria by BROMOscan method.
Series [3] addresses Transcription intermediary factor 1-alpha (Homo sapiens, UniProt O15164). Nature of the series: Binding affinity to human partial length DNA-tagged TRIM24(PHD,Bromo.) expressed in bacteria by BROMOscan method.
Series [4] addresses Bromodomain-containing protein 3 (Homo sapiens, UniProt Q15059). Nature of the series: Selectivity ratio of Kd for human partial length DNA-tagged BRD3 BD1 to Kd for human partial length DNA-tagged BRD3 BD2.
A further series can be described thus: physchem. The note with it: buffer, pH 7.4.

Sequence of Bromodomain-containing protein 3 (Q15059 2-726 limits assumed): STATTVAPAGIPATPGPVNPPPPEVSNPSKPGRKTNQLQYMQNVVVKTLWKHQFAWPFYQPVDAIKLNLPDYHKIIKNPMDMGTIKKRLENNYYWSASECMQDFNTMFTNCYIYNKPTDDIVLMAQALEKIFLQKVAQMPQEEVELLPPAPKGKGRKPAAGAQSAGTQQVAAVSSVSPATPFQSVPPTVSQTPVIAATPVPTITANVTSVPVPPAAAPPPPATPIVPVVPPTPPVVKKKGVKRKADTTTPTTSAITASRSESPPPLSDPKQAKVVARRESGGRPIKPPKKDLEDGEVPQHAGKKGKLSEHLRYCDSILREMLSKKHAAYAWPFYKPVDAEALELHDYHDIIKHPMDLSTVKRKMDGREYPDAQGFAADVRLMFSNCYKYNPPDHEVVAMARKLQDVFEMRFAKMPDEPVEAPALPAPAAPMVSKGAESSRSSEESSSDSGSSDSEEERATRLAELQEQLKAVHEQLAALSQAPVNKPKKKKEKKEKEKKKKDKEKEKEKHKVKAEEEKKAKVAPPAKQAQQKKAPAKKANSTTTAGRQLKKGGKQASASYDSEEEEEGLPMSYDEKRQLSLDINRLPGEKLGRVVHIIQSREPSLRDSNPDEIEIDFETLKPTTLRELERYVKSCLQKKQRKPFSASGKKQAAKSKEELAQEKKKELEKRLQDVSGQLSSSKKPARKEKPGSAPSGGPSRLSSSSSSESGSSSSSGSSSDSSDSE
Sequence of Transcription intermediary factor 1-alpha (O15164 whole entry): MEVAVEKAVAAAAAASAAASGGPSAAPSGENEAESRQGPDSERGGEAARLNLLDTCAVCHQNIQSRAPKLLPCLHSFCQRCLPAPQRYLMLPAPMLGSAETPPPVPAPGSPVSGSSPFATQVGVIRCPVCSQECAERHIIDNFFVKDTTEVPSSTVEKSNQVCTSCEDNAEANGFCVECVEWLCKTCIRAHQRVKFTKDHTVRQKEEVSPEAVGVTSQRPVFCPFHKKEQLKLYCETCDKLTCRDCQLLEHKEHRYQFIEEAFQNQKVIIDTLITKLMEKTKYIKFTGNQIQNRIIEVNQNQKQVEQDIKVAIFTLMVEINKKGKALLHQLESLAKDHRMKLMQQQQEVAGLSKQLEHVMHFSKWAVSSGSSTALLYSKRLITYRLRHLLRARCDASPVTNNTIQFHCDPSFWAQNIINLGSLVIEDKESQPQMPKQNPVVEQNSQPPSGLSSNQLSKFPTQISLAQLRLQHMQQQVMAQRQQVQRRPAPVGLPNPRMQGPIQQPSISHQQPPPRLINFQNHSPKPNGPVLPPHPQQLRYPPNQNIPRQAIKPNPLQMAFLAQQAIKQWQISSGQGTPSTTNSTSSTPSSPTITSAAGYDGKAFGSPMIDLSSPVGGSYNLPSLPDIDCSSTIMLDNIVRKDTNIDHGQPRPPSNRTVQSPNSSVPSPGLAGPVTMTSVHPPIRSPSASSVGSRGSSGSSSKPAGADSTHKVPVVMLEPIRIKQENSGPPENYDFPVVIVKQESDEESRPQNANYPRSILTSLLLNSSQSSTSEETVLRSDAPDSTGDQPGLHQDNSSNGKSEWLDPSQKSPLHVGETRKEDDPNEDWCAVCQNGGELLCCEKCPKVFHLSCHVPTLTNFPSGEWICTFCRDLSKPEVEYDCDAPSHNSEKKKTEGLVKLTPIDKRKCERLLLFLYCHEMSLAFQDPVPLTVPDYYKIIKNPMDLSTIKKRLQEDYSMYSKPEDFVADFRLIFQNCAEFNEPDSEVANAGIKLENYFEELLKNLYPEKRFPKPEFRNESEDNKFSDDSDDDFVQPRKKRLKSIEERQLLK
Sequence of Transcription initiation factor TFIID subunit 1-like (Q8IZX4 whole entry): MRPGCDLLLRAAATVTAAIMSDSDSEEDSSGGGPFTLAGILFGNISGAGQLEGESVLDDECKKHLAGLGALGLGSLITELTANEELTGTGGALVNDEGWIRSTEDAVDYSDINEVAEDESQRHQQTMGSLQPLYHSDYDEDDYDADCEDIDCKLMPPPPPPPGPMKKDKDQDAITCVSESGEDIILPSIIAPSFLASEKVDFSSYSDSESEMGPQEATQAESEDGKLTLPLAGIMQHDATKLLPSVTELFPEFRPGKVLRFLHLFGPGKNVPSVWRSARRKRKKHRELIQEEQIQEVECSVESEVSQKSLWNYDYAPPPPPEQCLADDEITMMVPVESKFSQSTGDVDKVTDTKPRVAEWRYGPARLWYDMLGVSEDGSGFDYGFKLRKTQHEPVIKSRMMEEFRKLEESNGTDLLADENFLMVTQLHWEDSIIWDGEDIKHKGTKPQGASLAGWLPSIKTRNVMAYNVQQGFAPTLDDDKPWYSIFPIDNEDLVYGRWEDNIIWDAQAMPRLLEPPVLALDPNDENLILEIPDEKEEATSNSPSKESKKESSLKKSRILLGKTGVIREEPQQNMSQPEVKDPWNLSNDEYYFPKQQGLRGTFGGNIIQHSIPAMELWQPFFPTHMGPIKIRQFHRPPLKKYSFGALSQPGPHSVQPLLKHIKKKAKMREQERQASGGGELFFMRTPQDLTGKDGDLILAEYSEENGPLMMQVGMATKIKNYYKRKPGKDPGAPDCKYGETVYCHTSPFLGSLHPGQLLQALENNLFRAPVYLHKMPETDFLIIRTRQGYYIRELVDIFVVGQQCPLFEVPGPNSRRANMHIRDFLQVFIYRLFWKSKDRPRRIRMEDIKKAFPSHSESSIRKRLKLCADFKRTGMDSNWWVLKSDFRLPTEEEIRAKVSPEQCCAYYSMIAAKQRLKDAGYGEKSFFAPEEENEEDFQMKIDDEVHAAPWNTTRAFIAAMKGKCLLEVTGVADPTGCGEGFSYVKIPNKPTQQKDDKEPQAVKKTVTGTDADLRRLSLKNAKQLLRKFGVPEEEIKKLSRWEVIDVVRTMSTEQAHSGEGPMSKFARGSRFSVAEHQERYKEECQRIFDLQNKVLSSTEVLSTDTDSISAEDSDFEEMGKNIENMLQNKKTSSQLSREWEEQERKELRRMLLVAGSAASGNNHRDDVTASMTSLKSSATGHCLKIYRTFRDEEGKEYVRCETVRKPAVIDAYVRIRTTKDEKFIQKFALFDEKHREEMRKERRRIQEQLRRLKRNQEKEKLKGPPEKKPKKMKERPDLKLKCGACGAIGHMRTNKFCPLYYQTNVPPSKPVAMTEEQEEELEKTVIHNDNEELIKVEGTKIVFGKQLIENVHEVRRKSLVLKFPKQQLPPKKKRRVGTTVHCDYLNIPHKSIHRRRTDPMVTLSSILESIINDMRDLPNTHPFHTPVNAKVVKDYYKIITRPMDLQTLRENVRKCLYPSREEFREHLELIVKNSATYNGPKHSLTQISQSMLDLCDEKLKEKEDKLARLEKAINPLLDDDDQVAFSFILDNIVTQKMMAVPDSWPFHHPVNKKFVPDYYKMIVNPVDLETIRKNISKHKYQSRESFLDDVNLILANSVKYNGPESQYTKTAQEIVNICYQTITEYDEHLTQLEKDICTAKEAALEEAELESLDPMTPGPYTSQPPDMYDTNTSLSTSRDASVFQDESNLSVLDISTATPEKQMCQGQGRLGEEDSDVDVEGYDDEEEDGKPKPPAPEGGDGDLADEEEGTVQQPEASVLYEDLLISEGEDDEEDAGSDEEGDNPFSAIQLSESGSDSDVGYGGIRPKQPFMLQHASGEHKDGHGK
Description for physchem: Chromatographic hydrophobicity index, log D of the compound at pH 7.4 by HPLC method

Take `CC(=O)N1c2ccc(C3=CCNCC3)cc2N(Cc2ccccc2CO)C[C@@H]1C1CC1`: the Kd in series [1] was 0.0209 µM; in series [2], over 30.2 µM; in series [3], over 30.2 µM. For the same compound, the Selectivity ratio in series [4] came to 47. The compound also returned a chromatographic logD in the series “physchem” of 2.3.
